# From BindingDB's records for doi:10.7270/Q20Z71R6 (Burnham Center For Chemical Genomics, 2010)
# Molecular target: Alkaline phosphatase, placental type (Homo sapiens, UniProt P05187)
# Assay: activation of placental alkaline phosphatase – biochemical, uHTS hits, luminescence, selectivity assay for human IAP activator project, dose response (AID 488888)
# Alkaline phosphatase, placental type, sequence (P05187 whole entry, looked up): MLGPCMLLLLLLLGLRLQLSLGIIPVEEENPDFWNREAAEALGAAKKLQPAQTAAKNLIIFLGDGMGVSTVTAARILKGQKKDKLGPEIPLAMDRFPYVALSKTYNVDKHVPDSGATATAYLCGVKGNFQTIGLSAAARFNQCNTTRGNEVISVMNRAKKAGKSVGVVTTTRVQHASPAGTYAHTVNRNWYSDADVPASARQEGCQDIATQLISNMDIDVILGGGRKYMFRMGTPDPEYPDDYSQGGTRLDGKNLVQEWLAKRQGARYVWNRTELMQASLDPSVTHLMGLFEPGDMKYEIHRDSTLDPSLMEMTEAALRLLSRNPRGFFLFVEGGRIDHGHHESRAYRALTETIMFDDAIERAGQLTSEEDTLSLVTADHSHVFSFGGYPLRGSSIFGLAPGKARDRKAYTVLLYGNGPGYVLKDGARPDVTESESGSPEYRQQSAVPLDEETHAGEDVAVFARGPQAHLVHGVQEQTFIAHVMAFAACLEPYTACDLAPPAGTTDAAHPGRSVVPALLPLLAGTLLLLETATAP
row,EC50,SMILES
1,35.2 µM,O=c1c2ccccc2nc(N=NCc2c(O)ccc3ccccc23)n1O [SMR000145705]
2,15.3 µM,C=c1[nH]n(-c2nc3ccccc3[nH]2)c(=O)c1=CN(C)C [(4E)-2-(1H-benzimidazol-2-yl)-4-(dimethylaminomethylidene)-5-methyl-pyrazol-3-one]
3,25.5 µM,"Cc1cc(Br)ccc1SCC(=O)OCC(=O)C(C#N)c1nc2ccccc2[nH]1 (stereo unspecified) [2-[(4-bromo-2-methylphenyl)thio]acetic acid [3-cyano-3-(1,3-dihydrobenzimidazol-2-ylidene)-2-oxopropyl] ester]"
4,14.5 µM,O=C(Nn1c(O)csc1=S)C(=O)Nn1c(O)csc1=S [SMR000349781]
5,> 100 µM,O=C(O)[C@H]1O[C@@H](Oc2c(-c3ccc(O)c(O)c3)oc3cc(O)cc(=O)c-3c2O)[C@H](O)[C@@H](O)[C@@H]1O [quercetin glucuronide]
6,9.75 µM,O=Nc1[nH]c(=O)c(CC(=O)c2ccccc2)nc1NO [SMR000539633]
7,23.2 µM,"CCOC(=O)c1c(C)[nH]c(C(=O)N/N=C/C2C=C([N+](=O)[O-])C=CC2=O)c1C (stereo unspecified) [ethyl 2,4-dimethyl-5-[[[(E)-(3-nitro-6-oxocyclohexa-2,4-dien-1-ylidene)methyl]amino]carbamoyl]-1H-pyrrole-3-carboxylate]"
8,7.82 µM,"COc1cccc(C=NNC(=O)c2[nH][nH]c(=O)c2C)c1O [N'-[(E)-(5-methoxy-6-oxidanylidene-cyclohexa-2,4-dien-1-ylidene)methyl]-4-methyl-5-oxidanylidene-1,4-dihydropyrazole-3-carbohydrazide]"
9,13.4 µM,CCc1ccc(CN=Nc2ncnc3nc[nH]c23)cc1 [MLS000419199]
10,62.2 µM,Cn1c(C(C#N)C(=O)c2ccc(Br)s2)nc2ccccc21 (stereo unspecified) [MLS001167394]
11,13.2 µM,Cc1c(C(=O)NN=Cc2ccc(O)cc2O)[nH][nH]c1=O
